Reference: PubChem BioAssay AID1963828 (Molecular Pharmacology Branch, DTP, NCI, 2024)

Test system: 991263-137-R1-J2-PDC complex spheroid viability
Assay: Anticancer human tumor 991263-137-R1-J2-PDC patient-derived colon adenocarcinoma cell line growth inhibition [POLQ]
Details: for IC50: curve of first compound; for viability, T/C: stronger effect = lower value
Method in brief: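 Three-cell-type spheroids modelling solid tumor plus stroma served as the readout system; POL inhibitors were tested individually and in combination, concentration ranges set by clinical Cmax where known.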

[1] = second compound 0.0316 µM, first compound 0.0316 µM
[2] = second compound 0.0316 µM, first compound 0.1 µM
[3] = second compound 0.0316 µM, first compound 0.316 µM
[4] = second compound 0.0316 µM, first compound 1 µM
[5] = second compound 0.1 µM, first compound 0.0316 µM
[6] = second compound 0.1 µM, first compound 0.1 µM
[7] = second compound 0.1 µM, first compound 0.316 µM
[8] = second compound 0.1 µM, first compound 1 µM
[9] = second compound 0.316 µM, first compound 0.0316 µM
[10] = second compound 0.316 µM, first compound 0.1 µM
[11] = second compound 0.316 µM, first compound 0.316 µM
[12] = second compound 0.316 µM, first compound 1 µM
[13] = second compound 1 µM, first compound 0.0316 µM
[14] = second compound 1 µM, first compound 0.1 µM
[15] = second compound 1 µM, first compound 0.316 µM
[16] = second compound 1 µM, first compound 1 µM
[17] = second compound 3.16 µM, first compound 0.0316 µM
[18] = second compound 3.16 µM, first compound 0.1 µM
[19] = second compound 3.16 µM, first compound 0.316 µM
[20] = second compound 3.16 µM, first compound 1 µM
[21] = second compound 10 µM, first compound 0.0316 µM
[22] = second compound 10 µM, first compound 0.1 µM
[23] = second compound 10 µM, first compound 0.316 µM
[24] = second compound 10 µM, first compound 1 µM
[25] = second compound 0.0316 µM, first compound 3.16 µM
[26] = second compound 0.0316 µM, first compound 10 µM
[27] = second compound 0.1 µM, first compound 3.16 µM
[28] = second compound 0.1 µM, first compound 10 µM
[29] = second compound 0.316 µM, first compound 3.16 µM
[30] = second compound 0.316 µM, first compound 10 µM
[31] = second compound 1 µM, first compound 3.16 µM
[32] = second compound 1 µM, first compound 10 µM
[33] = second compound 3.16 µM, first compound 3.16 µM
[34] = second compound 3.16 µM, first compound 10 µM
[35] = second compound 10 µM, first compound 3.16 µM
[36] = second compound 10 µM, first compound 10 µM
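Also: spheroids exposed to compounds for 7 days before readout.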
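For viability, T/C in this document: 100% = DMSO vehicle control viability.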

Compound: C=CCn1c(=O)c2cnc(Nc3ccc(N4CCN(C)CC4)cc3)nc2n1-c1cccc(C(C)(C)O)n1 + Nc1ccc(C#CCN(C(=O)Cc2ncc(C(F)(F)F)cc2C(F)(F)F)c2ccc(F)cc2)nn1
- IC50 (second compound 0.0316 µM): > 1000 nM
- IC50 (second compound 0.1 µM): > 1000 nM
- IC50 (second compound 0.316 µM): > 1000 nM
- IC50 (second compound 1 µM): > 1000 nM
- IC50 (second compound 3.16 µM): > 1000 nM
- IC50 (second compound 10 µM): > 1000 nM
- viability, T/C (second compound 0.0316 µM, first compound 0.00316 µM): 96.2%
- viability, T/C (second compound 0.0316 µM, first compound 0.01 µM): 100%
- viability, T/C [1]: 90.4%
- viability, T/C [2]: 102%
- viability, T/C [3]: 104%
- viability, T/C [4]: 97.8%
- viability, T/C (second compound 0.1 µM, first compound 0.00316 µM): 117%
- viability, T/C (second compound 0.1 µM, first compound 0.01 µM): 105%
- viability, T/C [5]: 93.6%
- viability, T/C [6]: 101%
- viability, T/C [7]: 103%
- viability, T/C [8]: 93.8%
- viability, T/C (second compound 0.316 µM, first compound 0.00316 µM): 97.3%
- viability, T/C (second compound 0.316 µM, first compound 0.01 µM): 98.2%
- viability, T/C [9]: 108%
- viability, T/C [10]: 96.3%
- viability, T/C [11]: 109%
- viability, T/C [12]: 93.5%
- viability, T/C (second compound 1 µM, first compound 0.00316 µM): 103%
- viability, T/C (second compound 1 µM, first compound 0.01 µM): 115%
- viability, T/C [13]: 103%
- viability, T/C [14]: 105%
- viability, T/C [15]: 105%
- viability, T/C [16]: 92%
- viability, T/C (second compound 3.16 µM, first compound 0.00316 µM): 91.8%
- viability, T/C (second compound 3.16 µM, first compound 0.01 µM): 102%
- viability, T/C [17]: 101%
- viability, T/C [18]: 92.1%
- viability, T/C [19]: 98.1%
- viability, T/C [20]: 102%
- viability, T/C (second compound 10 µM, first compound 0.00316 µM): 86.3%
- viability, T/C (second compound 10 µM, first compound 0.01 µM): 102%
- viability, T/C [21]: 103%
- viability, T/C [22]: 99.4%
- viability, T/C [23]: 102%
- viability, T/C [24]: 78.2%

Compound: CC(C)n1c(=O)n(C)c2cnc3cc(F)c(-c4ccc(OCCCN5CCCCC5)nc4)cc3c21 + Nc1ccc(C#CCN(C(=O)Cc2ncc(C(F)(F)F)cc2C(F)(F)F)c2ccc(F)cc2)nn1
- IC50 (second compound 0.0316 µM): > 10000 nM
- IC50 (second compound 0.1 µM): > 10000 nM
- IC50 (second compound 0.316 µM): > 10000 nM
- IC50 (second compound 1 µM): > 10000 nM
- IC50 (second compound 3.16 µM): > 10000 nM
- IC50 (second compound 10 µM): > 10000 nM
- viability, T/C [1]: 96.6%
- viability, T/C [2]: 109%
- viability, T/C [3]: 111%
- viability, T/C [4]: 121%
- viability, T/C [25]: 98.8%
- viability, T/C [26]: 111%
- viability, T/C [5]: 103%
- viability, T/C [6]: 99.8%
- viability, T/C [7]: 102%
- viability, T/C [8]: 121%
- viability, T/C [27]: 101%
- viability, T/C [28]: 85.8%
- viability, T/C [9]: 104%
- viability, T/C [10]: 99.4%
- viability, T/C [11]: 101%
- viability, T/C [12]: 110%
- viability, T/C [29]: 103%
- viability, T/C [30]: 111%
- viability, T/C [13]: 105%
- viability, T/C [14]: 100%
- viability, T/C [15]: 105%
- viability, T/C [16]: 104%
- viability, T/C [31]: 95.5%
- viability, T/C [32]: 90.1%
- viability, T/C [17]: 90.7%
- viability, T/C [18]: 97.7%
- viability, T/C [19]: 106%
- viability, T/C [20]: 118%
- viability, T/C [33]: 111%
- viability, T/C [34]: 105%
- viability, T/C [21]: 99%
- viability, T/C [22]: 96.2%
- viability, T/C [23]: 112%
- viability, T/C [24]: 94.5%
- viability, T/C [35]: 93.5%
- viability, T/C [36]: 101%

Compound: CC1COCCN1c1cc(-c2ccnn2C)c2ccnc(-c3ccn[nH]3)c2n1 (stereo unspecified) + Nc1ccc(C#CCN(C(=O)Cc2ncc(C(F)(F)F)cc2C(F)(F)F)c2ccc(F)cc2)nn1
- IC50 (second compound 0.0316 µM): 1140 nM
- IC50 (second compound 0.1 µM): 1610 nM
- IC50 (second compound 0.316 µM): 1150 nM
- IC50 (second compound 1 µM): 1400 nM
- IC50 (second compound 3.16 µM): 1110 nM
- IC50 (second compound 10 µM): 918 nM
- viability, T/C [1]: 105%
- viability, T/C [2]: 93.8%
- viability, T/C [3]: 75.6%
- viability, T/C [4]: 50.6%
- viability, T/C [25]: 38.6%
- viability, T/C [26]: 32.5%
- viability, T/C [5]: 105%
- viability, T/C [6]: 88.7%
- viability, T/C [7]: 69.5%
- viability, T/C [8]: 58.4%
- viability, T/C [27]: 39.9%
- viability, T/C [28]: 32.5%
- viability, T/C [9]: 99.4%
- viability, T/C [10]: 107%
- viability, T/C [11]: 74.4%
- viability, T/C [12]: 53.7%
- viability, T/C [29]: 40.6%
- viability, T/C [30]: 32%
- viability, T/C [13]: 108%
- viability, T/C [14]: 94%
- viability, T/C [15]: 75.5%
- viability, T/C [16]: 53.4%
- viability, T/C [31]: 40.4%
- viability, T/C [32]: 31.1%
- viability, T/C [17]: 103%
- viability, T/C [18]: 95.8%
- viability, T/C [19]: 72.5%
- viability, T/C [20]: 53%
- viability, T/C [33]: 35.8%
- viability, T/C [34]: 31.1%
- viability, T/C [21]: 93.9%
- viability, T/C [22]: 88.2%
- viability, T/C [23]: 73%
- viability, T/C [24]: 46.2%
- viability, T/C [35]: 42.6%
- viability, T/C [36]: 33.8%
